What was measured:
[1] = compound: O=[As]([O-])(O)O.[K+] [potassium arsenate]; assay: thermal stability z-score vs DMSO; higher = more thermally stabilized by treatment; conditions: HeLa; arsenate concentration 1 mM
Protocol: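 Cellular thermal proteome profiling in HeLa cells treated with 1 mM arsenate for 1 h (DMSO pretreatment), heated to ten temperatures (37-66.3 °C). Soluble protein was quantified by TMT mass spectrometry relative to DMSO controls; the thermal stability score was transformed to a z-score; mean of n = 3 experiments.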

[2] = compound: NC(=O)CCCCC1CCSS1 [lipoamide]; assay: as above; conditions: HeLa, lipoamide concentration 100 µM
Protocol: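 Cellular thermal proteome profiling in HeLa cells. Cells were treated with 100 µM lipoamide for 1 h, with or without 1 mM arsenate for a further 1 h, then heated to ten temperatures (37-66.3 °C), and soluble protein was quantified by TMT mass spectrometry relative to 0.1% DMSO controls. The thermal stability score (sum of log2 fold changes minus the abundance score) was transformed to a z-score; mean of n = 3 experiments.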

[3] = arsenate co-treatment: 1 mM arsenate 1 h
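Note: each temperature applied for 3 min, abundance score taken as mean log2 fold change at the two lowest temperatures, z-score obtained by mean subtraction and division by SD.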

MMACHC (UniProt Q9Y4U1)
Chain of UniProt Q9Y4U1 (Q9Y4U1 whole entry): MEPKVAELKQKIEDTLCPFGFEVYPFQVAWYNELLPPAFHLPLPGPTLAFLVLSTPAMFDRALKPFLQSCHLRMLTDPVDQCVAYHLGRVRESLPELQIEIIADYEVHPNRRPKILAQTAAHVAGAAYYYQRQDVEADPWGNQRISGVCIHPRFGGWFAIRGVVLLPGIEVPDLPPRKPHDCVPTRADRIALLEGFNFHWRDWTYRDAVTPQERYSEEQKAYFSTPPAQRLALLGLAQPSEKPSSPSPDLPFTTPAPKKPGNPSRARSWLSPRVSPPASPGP
thermal stability z-score [1]: -0.12 | thermal stability z-score [2, 3]: -0.0163 | thermal stability z-score ([2]; arsenate co-treatment: none): -0.159

MRPS28 (UniProt Q9Y2Q9)
thermal stability z-score [1]: -0.842 | thermal stability z-score [2, 3]: 0.366 | thermal stability z-score ([2]; arsenate co-treatment: none): 0.352

LHPP (UniProt Q9H008)
thermal stability z-score [1]: 0.146 | thermal stability z-score [2, 3]: 1.03 | thermal stability z-score ([2]; arsenate co-treatment: none): 0.991

PARD3 (UniProt Q8TEW0)
thermal stability z-score [1]: -0.00597 | thermal stability z-score [2, 3]: 0.02 | thermal stability z-score ([2]; arsenate co-treatment: none): 0.0237

SPG20 (UniProt Q8N0X7)
thermal stability z-score [1]: 0.193 | thermal stability z-score [2, 3]: 0.715 | thermal stability z-score ([2]; arsenate co-treatment: none): 0.609

CDC26 (UniProt Q8NHZ8)
Chain of UniProt Q8NHZ8 (Q8NHZ8 whole entry): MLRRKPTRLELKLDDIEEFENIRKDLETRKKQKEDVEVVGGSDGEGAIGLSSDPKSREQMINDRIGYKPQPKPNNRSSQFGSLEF
thermal stability z-score [1]: 0.691 | thermal stability z-score [2, 3]: 1.32 | thermal stability z-score ([2]; arsenate co-treatment: none): 0.534

VIM (UniProt P08670)
thermal stability z-score [1]: 0.432 | thermal stability z-score [2, 3]: 1.82 | thermal stability z-score ([2]; arsenate co-treatment: none): 1.15

KANK2 (UniProt Q63ZY3)
thermal stability z-score [1]: -0.109 | thermal stability z-score [2, 3]: -0.0369 | thermal stability z-score ([2]; arsenate co-treatment: none): 0.0732

RBM6 (UniProt P78332)
Chain of UniProt P78332 (P78332 whole entry): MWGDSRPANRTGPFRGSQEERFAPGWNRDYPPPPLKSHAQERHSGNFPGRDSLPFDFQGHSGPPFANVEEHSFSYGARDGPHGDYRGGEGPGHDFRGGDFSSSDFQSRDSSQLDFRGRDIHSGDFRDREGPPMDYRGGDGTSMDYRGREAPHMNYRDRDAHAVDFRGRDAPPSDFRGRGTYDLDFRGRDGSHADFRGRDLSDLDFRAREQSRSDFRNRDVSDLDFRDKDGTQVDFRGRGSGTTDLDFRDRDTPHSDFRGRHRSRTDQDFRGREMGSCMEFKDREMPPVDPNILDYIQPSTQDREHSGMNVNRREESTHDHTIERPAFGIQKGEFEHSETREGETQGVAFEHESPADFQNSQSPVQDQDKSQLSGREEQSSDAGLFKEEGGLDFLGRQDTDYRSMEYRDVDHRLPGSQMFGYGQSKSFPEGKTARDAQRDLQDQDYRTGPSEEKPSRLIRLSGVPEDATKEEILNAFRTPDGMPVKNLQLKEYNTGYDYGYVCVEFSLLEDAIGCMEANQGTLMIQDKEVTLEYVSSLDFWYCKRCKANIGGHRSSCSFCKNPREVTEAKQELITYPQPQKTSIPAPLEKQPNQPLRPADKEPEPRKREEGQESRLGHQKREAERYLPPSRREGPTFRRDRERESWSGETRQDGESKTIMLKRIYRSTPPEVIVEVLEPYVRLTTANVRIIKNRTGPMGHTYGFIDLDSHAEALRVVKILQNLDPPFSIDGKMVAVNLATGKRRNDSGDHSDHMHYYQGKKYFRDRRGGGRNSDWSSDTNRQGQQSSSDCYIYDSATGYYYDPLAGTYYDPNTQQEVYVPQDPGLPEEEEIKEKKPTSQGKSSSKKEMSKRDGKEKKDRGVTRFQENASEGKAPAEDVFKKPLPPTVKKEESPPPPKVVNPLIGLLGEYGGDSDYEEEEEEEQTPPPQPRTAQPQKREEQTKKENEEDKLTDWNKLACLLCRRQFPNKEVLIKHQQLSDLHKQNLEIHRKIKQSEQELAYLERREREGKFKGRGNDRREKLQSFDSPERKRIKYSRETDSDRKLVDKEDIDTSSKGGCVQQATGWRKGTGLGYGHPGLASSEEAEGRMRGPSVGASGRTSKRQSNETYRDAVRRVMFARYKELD
thermal stability z-score [1]: 0.000188 | thermal stability z-score [2, 3]: -0.00588 | thermal stability z-score ([2]; arsenate co-treatment: none): 0.0644

DOPEY2 (UniProt Q9Y3R5)
thermal stability z-score [1]: -0.9 | thermal stability z-score [2, 3]: 1.01 | thermal stability z-score ([2]; arsenate co-treatment: none): 0.402

ADRM1 (UniProt Q16186)
Chain of UniProt Q16186 (Q16186 whole entry): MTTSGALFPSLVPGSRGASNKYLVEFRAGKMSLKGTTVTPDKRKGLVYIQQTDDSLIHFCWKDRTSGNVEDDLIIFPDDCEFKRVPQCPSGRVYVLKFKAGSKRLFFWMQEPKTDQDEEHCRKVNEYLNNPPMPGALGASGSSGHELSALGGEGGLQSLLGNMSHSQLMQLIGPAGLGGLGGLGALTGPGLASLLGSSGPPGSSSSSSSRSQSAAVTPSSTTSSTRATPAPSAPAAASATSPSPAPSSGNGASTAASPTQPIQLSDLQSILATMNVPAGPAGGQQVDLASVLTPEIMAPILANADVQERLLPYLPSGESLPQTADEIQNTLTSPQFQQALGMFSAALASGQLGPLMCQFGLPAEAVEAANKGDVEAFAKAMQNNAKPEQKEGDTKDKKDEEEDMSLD
thermal stability z-score [1]: 0.823 | thermal stability z-score [2, 3]: 1.21 | thermal stability z-score ([2]; arsenate co-treatment: none): 0.976

ZKSCAN1 (UniProt P17029)
thermal stability z-score [1]: 0.128 | thermal stability z-score [2, 3]: -0.0617 | thermal stability z-score ([2]; arsenate co-treatment: none): 0.0599

ARRDC1 (UniProt Q8N5I2)
Chain of UniProt Q8N5I2 (Q8N5I2 whole entry): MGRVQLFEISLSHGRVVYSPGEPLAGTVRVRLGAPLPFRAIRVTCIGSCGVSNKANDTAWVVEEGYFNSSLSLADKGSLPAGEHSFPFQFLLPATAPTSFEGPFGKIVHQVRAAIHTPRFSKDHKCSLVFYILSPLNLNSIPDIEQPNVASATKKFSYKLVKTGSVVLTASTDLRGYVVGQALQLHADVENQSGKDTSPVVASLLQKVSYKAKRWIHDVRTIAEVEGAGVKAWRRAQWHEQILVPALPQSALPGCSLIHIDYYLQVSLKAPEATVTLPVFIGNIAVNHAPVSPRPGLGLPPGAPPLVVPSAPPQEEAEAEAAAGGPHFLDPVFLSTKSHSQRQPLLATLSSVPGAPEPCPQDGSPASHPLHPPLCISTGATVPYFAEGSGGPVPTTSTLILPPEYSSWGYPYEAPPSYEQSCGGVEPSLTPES
thermal stability z-score [1]: 0.121 | thermal stability z-score [2, 3]: -0.245 | thermal stability z-score ([2]; arsenate co-treatment: none): 0.802

SMU1 (UniProt Q2TAY7)
thermal stability z-score [1]: 0.656 | thermal stability z-score [2, 3]: -0.141 | thermal stability z-score ([2]; arsenate co-treatment: none): -0.0867

TRMT112 (UniProt Q9UI30)
thermal stability z-score [1]: -0.0169 | thermal stability z-score [2, 3]: 0.215 | thermal stability z-score ([2]; arsenate co-treatment: none): -0.0845

GLUL (UniProt P15104)
thermal stability z-score [1]: -1.16 | thermal stability z-score [2, 3]: 0.732 | thermal stability z-score ([2]; arsenate co-treatment: none): 0.282

SASS6 (UniProt Q6UVJ0)
thermal stability z-score [1]: -0.481 | thermal stability z-score [2, 3]: -0.579 | thermal stability z-score ([2]; arsenate co-treatment: none): -0.207

CASP1 (UniProt P29466)
thermal stability z-score [1]: -0.416 | thermal stability z-score [2, 3]: -1.23 | thermal stability z-score ([2]; arsenate co-treatment: none): -0.846

STK10 (UniProt O94804)
thermal stability z-score [1]: 0.146 | thermal stability z-score [2, 3]: -0.201 | thermal stability z-score ([2]; arsenate co-treatment: none): -0.0461

CTSZ (UniProt Q9UBR2)
thermal stability z-score [1]: 0.529 | thermal stability z-score [2, 3]: -1.02 | thermal stability z-score ([2]; arsenate co-treatment: none): -0.748

NUBPL (UniProt Q8TB37)
Chain of UniProt Q8TB37 (Q8TB37 whole entry): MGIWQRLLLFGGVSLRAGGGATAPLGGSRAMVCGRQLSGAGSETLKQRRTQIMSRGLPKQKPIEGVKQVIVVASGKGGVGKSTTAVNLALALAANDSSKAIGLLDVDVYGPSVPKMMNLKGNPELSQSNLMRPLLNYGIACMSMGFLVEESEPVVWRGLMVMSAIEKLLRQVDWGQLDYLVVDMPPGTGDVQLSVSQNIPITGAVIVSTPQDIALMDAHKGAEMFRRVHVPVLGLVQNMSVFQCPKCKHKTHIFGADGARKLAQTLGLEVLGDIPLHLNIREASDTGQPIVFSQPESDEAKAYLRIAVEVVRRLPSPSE
thermal stability z-score [1]: -0.262 | thermal stability z-score [2, 3]: -0.216 | thermal stability z-score ([2]; arsenate co-treatment: none): -0.498

GTF2B (UniProt Q00403)
Chain of UniProt Q00403 (Q00403 whole entry): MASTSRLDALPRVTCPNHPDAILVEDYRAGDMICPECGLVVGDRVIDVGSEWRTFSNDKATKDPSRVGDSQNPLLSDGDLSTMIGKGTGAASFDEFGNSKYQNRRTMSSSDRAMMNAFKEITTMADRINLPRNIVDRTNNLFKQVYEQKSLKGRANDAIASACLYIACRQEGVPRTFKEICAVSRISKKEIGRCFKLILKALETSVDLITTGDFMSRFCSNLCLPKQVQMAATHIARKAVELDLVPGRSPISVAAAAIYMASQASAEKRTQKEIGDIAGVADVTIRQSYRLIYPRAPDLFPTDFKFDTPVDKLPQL
thermal stability z-score [1]: -1.93 | thermal stability z-score [2, 3]: -0.0775 | thermal stability z-score ([2]; arsenate co-treatment: none): 0.338

CDC16 (UniProt Q13042)
thermal stability z-score [1]: -0.551 | thermal stability z-score [2, 3]: 0.159 | thermal stability z-score ([2]; arsenate co-treatment: none): 0.0509

EXOC6B (UniProt Q9Y2D4)
Chain of UniProt Q9Y2D4 (Q9Y2D4 whole entry): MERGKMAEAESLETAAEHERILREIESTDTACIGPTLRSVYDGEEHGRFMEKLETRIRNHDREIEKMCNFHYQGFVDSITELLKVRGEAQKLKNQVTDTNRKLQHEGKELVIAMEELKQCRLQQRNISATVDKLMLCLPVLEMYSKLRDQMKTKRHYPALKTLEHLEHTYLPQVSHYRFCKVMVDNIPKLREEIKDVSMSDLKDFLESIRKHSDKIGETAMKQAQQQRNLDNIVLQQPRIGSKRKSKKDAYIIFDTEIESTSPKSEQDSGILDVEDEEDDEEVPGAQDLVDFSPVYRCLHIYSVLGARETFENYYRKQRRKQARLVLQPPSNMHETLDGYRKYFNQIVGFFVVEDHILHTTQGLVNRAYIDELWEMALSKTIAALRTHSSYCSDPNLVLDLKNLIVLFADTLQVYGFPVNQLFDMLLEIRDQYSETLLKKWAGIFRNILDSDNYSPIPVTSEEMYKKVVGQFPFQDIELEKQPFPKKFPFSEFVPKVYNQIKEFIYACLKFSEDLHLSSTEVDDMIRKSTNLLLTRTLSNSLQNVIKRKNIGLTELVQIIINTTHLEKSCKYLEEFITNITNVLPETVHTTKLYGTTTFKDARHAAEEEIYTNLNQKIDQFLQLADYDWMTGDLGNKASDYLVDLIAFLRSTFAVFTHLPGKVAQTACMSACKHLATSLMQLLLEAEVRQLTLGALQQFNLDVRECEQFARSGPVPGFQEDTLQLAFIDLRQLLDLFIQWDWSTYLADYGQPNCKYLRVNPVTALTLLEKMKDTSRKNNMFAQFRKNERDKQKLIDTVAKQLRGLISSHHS
thermal stability z-score [1]: 0.332 | thermal stability z-score [2, 3]: 0.36 | thermal stability z-score ([2]; arsenate co-treatment: none): 1.01

PDCL3 (UniProt Q9H2J4)
thermal stability z-score [1]: -0.174 | thermal stability z-score [2, 3]: -0.0813 | thermal stability z-score ([2]; arsenate co-treatment: none): 0.0164

ISG15 (UniProt P05161)
thermal stability z-score [1]: 0.355 | thermal stability z-score [2, 3]: 0.471 | thermal stability z-score ([2]; arsenate co-treatment: none): 0.327

YBX1 (UniProt P67809)
thermal stability z-score [1]: -0.894 | thermal stability z-score [2, 3]: -0.0518 | thermal stability z-score ([2]; arsenate co-treatment: none): -0.23

TRABD (UniProt Q9H4I3)
Chain of UniProt Q9H4I3 (Q9H4I3 whole entry): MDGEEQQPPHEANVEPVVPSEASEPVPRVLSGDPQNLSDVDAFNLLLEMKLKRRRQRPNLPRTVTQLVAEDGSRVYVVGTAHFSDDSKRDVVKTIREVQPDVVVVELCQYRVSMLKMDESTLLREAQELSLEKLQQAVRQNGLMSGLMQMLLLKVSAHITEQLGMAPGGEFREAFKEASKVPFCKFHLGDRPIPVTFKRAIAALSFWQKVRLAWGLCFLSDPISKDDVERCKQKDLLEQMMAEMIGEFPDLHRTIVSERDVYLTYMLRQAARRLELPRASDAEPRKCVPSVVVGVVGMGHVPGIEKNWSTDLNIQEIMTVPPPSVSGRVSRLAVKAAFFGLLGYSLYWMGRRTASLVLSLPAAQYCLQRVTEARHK
thermal stability z-score [1]: -0.0912 | thermal stability z-score [2, 3]: 0.366 | thermal stability z-score ([2]; arsenate co-treatment: none): 0.172

U2AF2 (UniProt P26368)
thermal stability z-score [1]: -1.31 | thermal stability z-score [2, 3]: -0.241 | thermal stability z-score ([2]; arsenate co-treatment: none): -0.169

PAAF1 (UniProt Q9BRP4)
thermal stability z-score [1]: -0.478 | thermal stability z-score [2, 3]: -0.442 | thermal stability z-score ([2]; arsenate co-treatment: none): -0.906

NUSAP1 (UniProt Q9BXS6)
thermal stability z-score [1]: 0.758 | thermal stability z-score [2, 3]: 0.43 | thermal stability z-score ([2]; arsenate co-treatment: none): 0.187

YIPF5 (UniProt Q969M3)
thermal stability z-score [1]: -0.18 | thermal stability z-score [2, 3]: -0.255 | thermal stability z-score ([2]; arsenate co-treatment: none): -0.344

R3HCC1 (UniProt Q9Y3T6)
Chain of UniProt Q9Y3T6 (Q9Y3T6 whole entry, one chain of several): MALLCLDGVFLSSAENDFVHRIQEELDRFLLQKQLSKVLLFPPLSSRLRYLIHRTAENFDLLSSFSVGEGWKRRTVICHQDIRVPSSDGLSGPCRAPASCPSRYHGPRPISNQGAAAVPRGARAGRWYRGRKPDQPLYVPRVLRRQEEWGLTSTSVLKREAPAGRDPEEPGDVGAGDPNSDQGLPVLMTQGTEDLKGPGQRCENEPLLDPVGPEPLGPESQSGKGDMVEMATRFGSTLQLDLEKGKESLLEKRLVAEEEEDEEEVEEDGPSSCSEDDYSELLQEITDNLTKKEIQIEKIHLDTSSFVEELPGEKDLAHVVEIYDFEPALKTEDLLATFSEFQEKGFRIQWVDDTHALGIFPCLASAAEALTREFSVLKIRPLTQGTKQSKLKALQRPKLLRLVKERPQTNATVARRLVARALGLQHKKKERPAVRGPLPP
thermal stability z-score [1]: -0.101 | thermal stability z-score [2, 3]: 0.183 | thermal stability z-score ([2]; arsenate co-treatment: none): 0.233

ERGIC1 (UniProt Q969X5)
Chain of UniProt Q969X5 (Q969X5 whole entry): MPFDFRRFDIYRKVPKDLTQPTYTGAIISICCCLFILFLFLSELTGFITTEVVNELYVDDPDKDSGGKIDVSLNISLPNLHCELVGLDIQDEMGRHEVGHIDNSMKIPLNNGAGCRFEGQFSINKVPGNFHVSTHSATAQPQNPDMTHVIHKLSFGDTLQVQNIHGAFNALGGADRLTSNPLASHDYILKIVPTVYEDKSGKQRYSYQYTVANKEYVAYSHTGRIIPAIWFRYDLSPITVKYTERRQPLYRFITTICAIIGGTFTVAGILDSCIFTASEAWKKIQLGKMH
thermal stability z-score [1]: 0.483 | thermal stability z-score [2, 3]: -1.39 | thermal stability z-score ([2]; arsenate co-treatment: none): -1.4

C19ORF70|MIC13
thermal stability z-score [1]: 0.22 | thermal stability z-score [2, 3]: 0.265 | thermal stability z-score ([2]; arsenate co-treatment: none): 0.131

FAM114A2 (UniProt Q9NRY5)
thermal stability z-score [1]: 0.222 | thermal stability z-score [2, 3]: -0.354 | thermal stability z-score ([2]; arsenate co-treatment: none): -0.328

From the supplement of paper PMC12463676, “Small-molecule dissolution of stress granules by redox modulation benefits ALS models” (Nature Chemical Biology, 2025)
